Like-named read-outs stand apart in the source and are kept apart here. Positions of bridges follow the written chain, without caps; N, C: chain ends. Non-standard residues stand in square brackets, D forms with d. Residues, ends and D or L forms follow the SMILES beside them. ξ: configuration not given here. Bip = N[C@@H](Cc1ccc(-c2ccccc2)cc1)C(=O)O; hhPhe = N[C@@H](CCCc1ccccc1)C(=O)O; h4Pal = N[C@@H](CCc1ccncc1)C(=O)O; 4Pal = N[C@@H](Cc1ccncc1)C(=O)O; ξIle = CC[C@H](C)C(N)C(=O)O; Orn = NCCC[C@H](N)C(=O)O; Sar = CNCC(=O)O
Target: TNFα (Homo sapiens, UniProt P01375)
Sequence (P01375 77-233 limits assumed): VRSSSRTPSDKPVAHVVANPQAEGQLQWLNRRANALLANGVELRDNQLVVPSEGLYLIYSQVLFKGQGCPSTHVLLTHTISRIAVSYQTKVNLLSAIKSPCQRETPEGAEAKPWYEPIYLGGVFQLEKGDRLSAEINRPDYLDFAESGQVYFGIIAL
Experiment: TNF-Induced HEK-Blue Assay
Type: cell-based
[1] = HEK-Blue-CD40L cells, NF-kB-driven secreted alkaline phosphatase reporter, TNFα 0.5 ng/ml, 18 h, read-out: TNF induced HEK-Blue assay IC50 value

SMILES	IC50 [1] [nM]	IC50 [nM]
CC(C)C[C@@H]1NC(=O)[C@H](CCCNC(=N)N)NC(=O)[C@H](C(C)C)NC(=O)[C@@H]2CCCN2C(=O)[C@H](C(C)C)NC(=O)[C@H](CCCNC(=N)N)NC(=O)[C@H](CC(=O)O)NC(=O)[C@@H]2CCCN2C(=O)CN(C)C(=O)[C@H](Cc2ccc(-c3ccccc3)cc2)NC(=O)[C@H](Cc2ccc(-c3ccccc3)cc2)NC(=O)[C@H](Cc2ccccc2)NC(=O)CSC[C@@H](C(=O)NCC(N)=O)NC1=O [Example 1] ({CH2CO}-F[Bip][Bip][Sar]PDRVPVRLCG-NH2; thioether N-13)	200 to 2000	–
CC(C)C[C@@H]1NC(=O)[C@H](CCCN)NC(=O)[C@H](C(C)C)NC(=O)[C@@H]2CCCN2C(=O)[C@H](C(C)C)NC(=O)[C@H](CCCNC(=N)N)NC(=O)[C@H](CC(=O)O)NC(=O)[C@@H]2CCCN2C(=O)CN(C)C(=O)[C@H](Cc2ccc(-c3ccccc3)cc2)NC(=O)[C@H](Cc2ccc(-c3ccccc3)cc2)NC(=O)[C@H](Cc2ccccc2)NC(=O)CSC[C@@H](C(=O)NCC(N)=O)NC1=O [Example 2] ({CH2CO}-F[Bip][Bip][Sar]PDRVPV[Orn]LCG-NH2; thioether N-13)	200 to 2000	–
CC(C)C[C@@H]1NC(=O)[C@H](CCCCN)NC(=O)[C@H](C(C)C)NC(=O)[C@@H]2CCCN2C(=O)[C@H](C(C)C)NC(=O)[C@H](CCCNC(=N)N)NC(=O)[C@H](CC(=O)O)NC(=O)[C@@H]2CCCN2C(=O)CN(C)C(=O)[C@H](Cc2ccc(-c3ccccc3)cc2)NC(=O)[C@H](Cc2ccc(-c3ccccc3)cc2)NC(=O)[C@H](Cc2ccccc2)NC(=O)CSC[C@@H](C(=O)NCC(N)=O)NC1=O [Example 3] ({CH2CO}-F[Bip][Bip][Sar]PDRVPVKLCG-NH2; thioether N-13)	200 to 2000	–
CC(C)C[C@@H]1NC(=O)[C@H](CCCNC(=N)N)NC(=O)[C@H](C(C)C)NC(=O)[C@@H]2CCCN2C(=O)[C@H](C(C)C)NC(=O)[C@H](CCCNC(=N)N)NC(=O)[C@H](CC(=O)O)NC(=O)[C@@H]2CCCN2C(=O)CN(C)C(=O)[C@H](Cc2ccc(-c3ccccc3)cc2)NC(=O)[C@H](Cc2ccc(-c3ccccc3)cc2)NC(=O)[C@H](Cc2ccc(O)cc2)NC(=O)CSC[C@@H](C(=O)NCC(N)=O)NC1=O [Example 4] ({CH2CO}-Y[Bip][Bip][Sar]PDRVPVRLCG-NH2; thioether N-13)	200 to 2000	–
CC(C)C[C@@H]1NC(=O)[C@H](CCCNC(=N)N)NC(=O)[C@H](C(C)C)NC(=O)[C@@H]2CCCN2C(=O)[C@H](C(C)C)NC(=O)[C@H](CCCNC(=N)N)NC(=O)[C@H](CC(=O)O)NC(=O)[C@@H]2CCCN2C(=O)CN(C)C(=O)[C@H](Cc2ccc(-c3ccccc3)cc2)NC(=O)[C@H](Cc2ccc(-c3ccccc3)cc2)NC(=O)[C@H](Cc2c[nH]c3ccccc23)NC(=O)CSC[C@@H](C(=O)NCC(N)=O)NC1=O [Example 5] ({CH2CO}-W[Bip][Bip][Sar]PDRVPVRLCG-NH2; thioether N-13)	200 to 2000	–
CC(C)C[C@@H]1NC(=O)[C@H](CCCNC(=N)N)NC(=O)[C@H](C(C)C)NC(=O)[C@@H]2CCCN2C(=O)[C@H](C(C)C)NC(=O)[C@H](CCCNC(=N)N)NC(=O)[C@H](CC(=O)O)NC(=O)[C@@H]2CCCN2C(=O)CN(C)C(=O)[C@H](Cc2ccc(-c3ccccc3)cc2)NC(=O)[C@H](Cc2ccc(-c3ccccc3)cc2)NC(=O)[C@H](CCCCN)NC(=O)CSC[C@@H](C(=O)NCC(N)=O)NC1=O [Example 6] ({CH2CO}-K[Bip][Bip][Sar]PDRVPVRLCG-NH2; thioether N-13)	200 to 2000	–
CC[C@H](C)C1NC(=O)CSC[C@@H](C(=O)NCC(N)=O)NC(=O)[C@H](CC(C)C)NC(=O)[C@H](CCCNC(=N)N)NC(=O)[C@H](C(C)C)NC(=O)[C@@H]2CCCN2C(=O)[C@H](C(C)C)NC(=O)[C@H](CCCNC(=N)N)NC(=O)[C@H](CC(=O)O)NC(=O)[C@@H]2CCCN2C(=O)CN(C)C(=O)[C@H](Cc2ccc(-c3ccccc3)cc2)NC(=O)[C@H](Cc2ccc(-c3ccccc3)cc2)NC1=O (stereo partly drawn) [Example 7] ({CH2CO}-[ξIle][Bip][Bip][Sar]PDRVPVRLCG-NH2; thioether N-13)	200 to 2000	–
CC(C)C[C@@H]1NC(=O)CSC[C@@H](C(=O)NCC(N)=O)NC(=O)[C@H](CC(C)C)NC(=O)[C@H](CCCNC(=N)N)NC(=O)[C@H](C(C)C)NC(=O)[C@@H]2CCCN2C(=O)[C@H](C(C)C)NC(=O)[C@H](CCCNC(=N)N)NC(=O)[C@H](CC(=O)O)NC(=O)[C@@H]2CCCN2C(=O)CN(C)C(=O)[C@H](Cc2ccc(-c3ccccc3)cc2)NC(=O)[C@H](Cc2ccc(-c3ccccc3)cc2)NC1=O [Example 8] ({CH2CO}-L[Bip][Bip][Sar]PDRVPVRLCG-NH2; thioether N-13)	200 to 2000	–
CC(C)C[C@@H]1NC(=O)[C@H](CCCNC(=N)N)NC(=O)[C@H](C(C)C)NC(=O)[C@@H]2CCCN2C(=O)[C@H](C(C)C)NC(=O)[C@H](CCCNC(=N)N)NC(=O)[C@H](CC(=O)O)NC(=O)[C@@H]2CCCN2C(=O)CN(C)C(=O)[C@H](Cc2ccc(-c3ccccc3)cc2)NC(=O)[C@H](Cc2ccc(-c3ccccc3)cc2)NC(=O)[C@H](C(C)C)NC(=O)CSC[C@@H](C(=O)NCC(N)=O)NC1=O [Example 9] ({CH2CO}-V[Bip][Bip][Sar]PDRVPVRLCG-NH2; thioether N-13)	200 to 2000	–
CC(C)C[C@@H]1NC(=O)[C@H](CCCNC(=N)N)NC(=O)[C@H](C(C)C)NC(=O)[C@@H]2CCCN2C(=O)[C@H](C(C)C)NC(=O)[C@H](CCCNC(=N)N)NC(=O)[C@H](CC(=O)O)NC(=O)[C@@H]2CCCN2C(=O)CN(C)C(=O)[C@H](Cc2ccc(-c3ccccc3)cc2)NC(=O)[C@H](Cc2ccc(-c3ccccc3)cc2)NC(=O)[C@H](CCc2ccncc2)NC(=O)CSC[C@@H](C(=O)NCC(N)=O)NC1=O [Example 10] ({CH2CO}-[h4Pal][Bip][Bip][Sar]PDRVPVRLCG-NH2; thioether N-13)	200 to 2000	–
CC[C@H](C)[C@@H]1NC(=O)[C@@H]2CCCN2C(=O)[C@H](C(C)C)NC(=O)[C@H](CCCNC(=N)N)NC(=O)[C@H](CC(=O)O)NC(=O)[C@@H]2CCCN2C(=O)CN(C)C(=O)[C@H](Cc2ccc(-c3ccccc3)cc2)NC(=O)[C@H](Cc2ccc(-c3ccccc3)cc2)NC(=O)[C@H](Cc2ccccc2)NC(=O)CSC[C@@H](C(=O)NCC(N)=O)NC(=O)[C@H](CC(C)C)NC(=O)[C@H](CCCNC(=N)N)NC1=O [Example 20] ({CH2CO}-F[Bip][Bip][Sar]PDRVPIRLCG-NH2; thioether N-13)	–	200 to 2000

Second part, led by results:

IC50 [1] [nM]	SMILES	IC50 [nM]
200 to 2000	CC(C)C[C@@H]1NC(=O)[C@H](CCCNC(=N)N)NC(=O)[C@H](C(C)C)NC(=O)[C@@H]2CCCN2C(=O)[C@H](C(C)C)NC(=O)[C@H](CCCNC(=N)N)NC(=O)[C@H](CC(=O)O)NC(=O)[C@@H]2CCCN2C(=O)CN(C)C(=O)[C@H](Cc2ccc(-c3ccccc3)cc2)NC(=O)[C@H](Cc2ccc(-c3ccccc3)cc2)NC(=O)[C@H](Cc2ccncc2)NC(=O)CSC[C@@H](C(=O)NCC(N)=O)NC1=O [Example 11] ({CH2CO}-[4Pal][Bip][Bip][Sar]PDRVPVRLCG-NH2; thioether N-13)	–
200 to 2000	CC(C)C[C@@H]1NC(=O)[C@H](CCCNC(=N)N)NC(=O)[C@H](C(C)C)NC(=O)[C@@H]2CCCN2C(=O)[C@H](C(C)C)NC(=O)[C@H](CCCNC(=N)N)NC(=O)[C@H](CC(=O)O)NC(=O)[C@@H]2CCCN2C(=O)CN(C)C(=O)[C@H](Cc2ccc(-c3ccccc3)cc2)NC(=O)[C@H](Cc2ccc(-c3ccccc3)cc2)NC(=O)[C@H](CCCc2ccccc2)NC(=O)CSC[C@@H](C(=O)NCC(N)=O)NC1=O [Example 12] ({CH2CO}-[hhPhe][Bip][Bip][Sar]PDRVPVRLCG-NH2; thioether N-13)	–
200 to 2000	CC(C)C[C@@H]1NC(=O)[C@H](CCCNC(=N)N)NC(=O)[C@H](C(C)C)NC(=O)[C@@H]2CCCN2C(=O)[C@H](Cc2ccc(O)cc2)NC(=O)[C@H](CCCNC(=N)N)NC(=O)[C@H](CC(=O)O)NC(=O)[C@@H]2CCCN2C(=O)CN(C)C(=O)[C@H](Cc2ccc(-c3ccccc3)cc2)NC(=O)[C@H](Cc2ccc(-c3ccccc3)cc2)NC(=O)[C@H](Cc2ccccc2)NC(=O)CSC[C@@H](C(=O)NCC(N)=O)NC1=O [Example 15] ({CH2CO}-F[Bip][Bip][Sar]PDRYPVRLCG-NH2; thioether N-13)	–
200 to 2000	CC(C)C[C@@H]1NC(=O)[C@H](CCCNC(=N)N)NC(=O)[C@H](C(C)C)NC(=O)CN(C)C(=O)[C@H](C(C)C)NC(=O)[C@H](CCCNC(=N)N)NC(=O)[C@H](CC(=O)O)NC(=O)[C@@H]2CCCN2C(=O)CN(C)C(=O)[C@H](Cc2ccc(-c3ccccc3)cc2)NC(=O)[C@H](Cc2ccc(-c3ccccc3)cc2)NC(=O)[C@H](Cc2ccccc2)NC(=O)CSC[C@@H](C(=O)NCC(N)=O)NC1=O [Example 16] ({CH2CO}-F[Bip][Bip][Sar]PDRV[Sar]VRLCG-NH2; thioether N-13)	–
200 to 2000	CC(C)C[C@@H]1NC(=O)[C@H](CCCNC(=N)N)NC(=O)[C@H](C(C)C)NC(=O)[C@H](C(C)C)NC(=O)[C@H](C(C)C)NC(=O)[C@H](CCCNC(=N)N)NC(=O)[C@H](CC(=O)O)NC(=O)[C@@H]2CCCN2C(=O)CN(C)C(=O)[C@H](Cc2ccc(-c3ccccc3)cc2)NC(=O)[C@H](Cc2ccc(-c3ccccc3)cc2)NC(=O)[C@H](Cc2ccccc2)NC(=O)CSC[C@@H](C(=O)NCC(N)=O)NC1=O [Example 17] ({CH2CO}-F[Bip][Bip][Sar]PDRVVVRLCG-NH2; thioether N-13)	–
200 to 2000	CC(C)C[C@@H]1NC(=O)[C@H](CCC(N)=O)NC(=O)[C@H](C(C)C)NC(=O)[C@@H]2CCCN2C(=O)[C@H](C(C)C)NC(=O)[C@H](CCCNC(=N)N)NC(=O)[C@H](CC(=O)O)NC(=O)[C@@H]2CCCN2C(=O)CN(C)C(=O)[C@H](Cc2ccc(-c3ccccc3)cc2)NC(=O)[C@H](Cc2ccc(-c3ccccc3)cc2)NC(=O)[C@H](Cc2ccccc2)NC(=O)CSC[C@@H](C(=O)NCC(N)=O)NC1=O [Example 18] ({CH2CO}-F[Bip][Bip][Sar]PDRVPVQLCG-NH2; thioether N-13)	–
200 to 2000	CC[C@H](C)[C@@H]1NC(=O)[C@H](C(C)C)NC(=O)[C@@H]2CCCN2C(=O)[C@H](C(C)C)NC(=O)[C@H](CCCNC(=N)N)NC(=O)[C@H](CC(=O)O)NC(=O)[C@H](Cc2ccc(O)cc2)NC(=O)CN(C)C(=O)[C@H](Cc2ccc(-c3ccccc3)cc2)NC(=O)[C@H](Cc2ccc(-c3ccccc3)cc2)NC(=O)[C@H](Cc2ccccc2)NC(=O)CSC[C@@H](C(=O)NCC(N)=O)NC(=O)[C@H](CC(C)C)NC1=O [Example 19] ({CH2CO}-F[Bip][Bip][Sar]YDRVPVILCG-NH2; thioether N-13)	–

Reference: patent US20250145665A1, “MACROCYCLIC PEPTIDES USEFUL AS MODULATORS OF TNF ALPHA” (Bristol-Myers Squibb Company, priority 2023, published 2025)
